Measured values: ChEMBL document CHEMBL1201862, “PubChem BioAssay data set” (2004)
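Protocol summary: plate cells (96-well), add compound at 5 concentrations, incubate 48 h, interpolate endpoints linearly. Abbreviation: GI50, concentration required for 50% inhibition of growth.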 Active and inactive are the calls of the source. Cut-off read from the data, not from the text of the source: active = GI50 up to about 1.1 µM and inactive = higher.

Key:
Experiment in all cases: NCI tumour cell line growth inhibition, 48 h
[1] = system: NCI-H23
[2] = system: MDA-MB-231
[3] = system: UO-31
[4] = system: OVCAR-8
[5] = system: PC-3
[6] = system: SK-MEL-28
[7] = system: T47D
[8] = system: UACC-257
[9] = system: EKVX
[10] = system: SW-620
[11] = system: K562
[12] = system: RPMI-8226
[13] = system: Hs-578T
[14] = system: NCI-H460
[15] = system: KM12
[16] = system: HOP-92
[17] = system: CAKI-1
[18] = system: U-251
[19] = system: SK-OV-3
[20] = system: MDA-MB-435

| Structure (SMILES) | GI50 [1] | GI50 [2] | GI50 [3] | GI50 [4] | GI50 [5] | GI50 [6] | GI50 [7] | GI50 [8] | GI50 [9] | GI50 [10] | GI50 [11] | GI50 [12] | GI50 [13] | GI50 [14] | GI50 [15] | GI50 [16] | GI50 [17] | GI50 [18] | GI50 [19] | GI50 [20] |
| --- | --- | --- | --- | --- | --- | --- | --- | --- | --- | --- | --- | --- | --- | --- | --- | --- | --- | --- | --- | --- |
| N#CC[N+]1(Cc2ccccn2)CCCC1.O=S(=O)([O-])c1ccccc1 | > 100 µM (inactive) | > 100 µM (inactive) | > 100 µM (inactive) | > 100 µM (inactive) | > 100 µM (inactive) | > 100 µM (inactive) | > 100 µM (inactive) | > 100 µM (inactive) | > 100 µM (inactive) | > 100 µM (inactive) | > 100 µM (inactive) | > 100 µM (inactive) | > 100 µM (inactive) | > 100 µM (inactive) | > 100 µM (inactive) | > 100 µM (inactive) | > 100 µM (inactive) | > 100 µM (inactive) | > 100 µM (inactive) | > 100 µM (inactive) |
| COC(=O)CCCCC/C(=C\C(=O)C(Cl)(Cl)Cl)OC | 31.8 µM (inactive) | 80 µM (inactive) | 84.5 µM (inactive) | 25.4 µM (inactive) | 27.8 µM (inactive) | 32.9 µM (inactive) | 28.5 µM (inactive) | 21.8 µM (inactive) | 24.7 µM (inactive) | 31.7 µM (inactive) | 26.8 µM (inactive) | 20.4 µM (inactive) | 26.4 µM (inactive) | 28.3 µM (inactive) | 26.4 µM (inactive) | 26.1 µM (inactive) | 30.8 µM (inactive) | 26.4 µM (inactive) | 61.4 µM (inactive) | 22.9 µM (inactive) |
| CCCCCCCc1c(Cl)nc(Cl)nc1Cl | 3.72 µM (inactive) | 3.52 µM (inactive) | 5.82 µM (inactive) | 2.36 µM (inactive) | 8.28 µM (inactive) | 7.11 µM (inactive) | 12.2 µM (inactive) | 10.4 µM (inactive) | 8.77 µM (inactive) | 2.68 µM (inactive) | 2.06 µM (inactive) | 2.84 µM (inactive) | 6.28 µM (inactive) | 12.8 µM (inactive) | 11.2 µM (inactive) | 4.5 µM (inactive) | 2.38 µM (inactive) | 4.89 µM (inactive) | 7.43 µM (inactive) | 2.65 µM (inactive) |
| COc1cc2c(cc1OC)C(SC)C(=O)N(Cc1cccc(OC)c1OC)CC2 (stereo not given) | 2.25 µM (inactive) | 5.48 µM (inactive) | 6.47 µM (inactive) | 4.29 µM (inactive) | 1.28 µM (inactive) | 1.99 µM (inactive) | 4.13 µM (inactive) | 2.95 µM (inactive) | 4.7 µM (inactive) | 1.49 µM (inactive) | 0.501 µM (active) | 3.61 µM (inactive) | 2.66 µM (inactive) | 1.09 µM (active) | 2.65 µM (inactive) | 0.861 µM (active) | 13.6 µM (inactive) | 2.02 µM (inactive) | 2.54 µM (inactive) | 0.353 µM (active) |
| O=c1[nH]nc(Cc2ccc(Cl)cc2)n1O | > 100 µM (inactive) | > 100 µM (inactive) | > 100 µM (inactive) | > 100 µM (inactive) | > 100 µM (inactive) | > 100 µM (inactive) | > 100 µM (inactive) | > 100 µM (inactive) | > 100 µM (inactive) | > 100 µM (inactive) | > 100 µM (inactive) | > 100 µM (inactive) | > 100 µM (inactive) | > 100 µM (inactive) | > 100 µM (inactive) | > 100 µM (inactive) | > 100 µM (inactive) | > 100 µM (inactive) | > 100 µM (inactive) | > 100 µM (inactive) |
| O=c1c2ncn(C3CCCCO3)c2n(-c2ccccc2)c(=S)n1-c1ccccc1 (stereo not given) | 31.4 µM (inactive) | 26.2 µM (inactive) | 35.1 µM (inactive) | 19 µM (inactive) | 80.4 µM (inactive) | > 68.1 µM (inactive) | 2.31 µM (inactive) | 61.9 µM (inactive) | 39.5 µM (inactive) | > 65.9 µM (inactive) | > 68.7 µM (inactive) | > 52.7 µM (inactive) | 10.1 µM (inactive) | > 54.8 µM (inactive) | > 76.4 µM (inactive) | 9.91 µM (inactive) | 42.4 µM (inactive) | 14.5 µM (inactive) | 20.7 µM (inactive) | > 67.6 µM (inactive) |
| Cc1ccc(S[C@@H](C)[C@@](O)(C(N)=O)c2ccccc2)cc1 | 29.8 µM (inactive) | 19.2 µM (inactive) | 15.2 µM (inactive) | 38.5 µM (inactive) | 35.4 µM (inactive) | > 100 µM (inactive) | 26.7 µM (inactive) | 13 µM (inactive) | 13.9 µM (inactive) | 39 µM (inactive) | 15 µM (inactive) | 21.7 µM (inactive) | > 100 µM (inactive) | 85.1 µM (inactive) | 40.8 µM (inactive) | 18.7 µM (inactive) | 16.6 µM (inactive) | 70.3 µM (inactive) | > 100 µM (inactive) | 45.6 µM (inactive) |
| [O-]c1c[n+](CCCC[n+]2cc([O-])on2)no1 | > 100 µM (inactive) | > 100 µM (inactive) | > 100 µM (inactive) | > 100 µM (inactive) | > 100 µM (inactive) | > 100 µM (inactive) | > 100 µM (inactive) | > 100 µM (inactive) | > 100 µM (inactive) | > 100 µM (inactive) | > 100 µM (inactive) | > 100 µM (inactive) | > 100 µM (inactive) | > 100 µM (inactive) | > 100 µM (inactive) | > 100 µM (inactive) | > 100 µM (inactive) | > 100 µM (inactive) | > 100 µM (inactive) | > 100 µM (inactive) |
| COC(=O)/C=C\C(C#N)(C#N)/N=C/c1ccc(C)s1 | 2.23 µM (inactive) | 5.61 µM (inactive) | 1.67 µM (inactive) | 3.69 µM (inactive) | 2.63 µM (inactive) | 4.28 µM (inactive) | 1.58 µM (inactive) | 2.73 µM (inactive) | 5.31 µM (inactive) | 0.668 µM (active) | 0.998 µM (active) | 1.9 µM (inactive) | 21.8 µM (inactive) | 19.3 µM (inactive) | 13.1 µM (inactive) | 1.64 µM (inactive) | 1.94 µM (inactive) | 12.4 µM (inactive) | 15 µM (inactive) | 2.47 µM (inactive) |
| Cc1nc2ccc(S(=O)(=O)Nc3ccccn3)cc2c(=O)n1NS(=O)(=O)c1ccccn1 | > 100 µM (inactive) | > 100 µM (inactive) | > 100 µM (inactive) | > 100 µM (inactive) | > 100 µM (inactive) | > 100 µM (inactive) | > 100 µM (inactive) | > 100 µM (inactive) | > 100 µM (inactive) | > 100 µM (inactive) | > 100 µM (inactive) | > 100 µM (inactive) | > 100 µM (inactive) | > 100 µM (inactive) | > 100 µM (inactive) | > 100 µM (inactive) | > 100 µM (inactive) | > 100 µM (inactive) | > 100 µM (inactive) | > 100 µM (inactive) |
| COC(=O)c1ccccc1CC1Cc2ccc3c(c2C1)CCC3 (stereo not given) | 38.1 µM (inactive) | 19.5 µM (inactive) | 37 µM (inactive) | 34.5 µM (inactive) | 29.2 µM (inactive) | 46 µM (inactive) | 22.9 µM (inactive) | 10.4 µM (inactive) | 17.3 µM (inactive) | 39.4 µM (inactive) | 29.6 µM (inactive) | 18.1 µM (inactive) | 37 µM (inactive) | 30.1 µM (inactive) | 30.1 µM (inactive) | 20.1 µM (inactive) | 45.5 µM (inactive) | 28.6 µM (inactive) | 32.7 µM (inactive) | 22.9 µM (inactive) |
| CCCC(CC)c1cc(O)c(O)cc1C(CC)CCC (stereo not given) | > 10 µM (inactive) | > 10 µM (inactive) | > 10 µM (inactive) | > 10 µM (inactive) | > 10 µM (inactive) | > 10 µM (inactive) | > 10 µM (inactive) | > 10 µM (inactive) | > 10 µM (inactive) | > 10 µM (inactive) | > 10 µM (inactive) | > 10 µM (inactive) | > 10 µM (inactive) | > 10 µM (inactive) | > 10 µM (inactive) | > 10 µM (inactive) | > 10 µM (inactive) | > 10 µM (inactive) | > 10 µM (inactive) | > 10 µM (inactive) |
| CCC1CN2CCc3c([nH]c4ccccc34)[C@@](C(=O)OC)(c3cc4c(cc3OC)N(C)C3C(O)(C(=O)OC)C(C(=O)OC)C5(CC)C=CCN6CCC43C65)C[C@@H](C2)[C@@H]1C(C)(C)C (stereo not given in full) | 0.352 µM (active) | 0.407 µM (active) | 1.47 µM (inactive) | 0.5 µM (active) | 0.286 µM (active) | 0.652 µM (active) | 0.687 µM (active) | 0.514 µM (active) | 1.98 µM (inactive) | 0.33 µM (active) | 0.334 µM (active) | 0.469 µM (active) | 0.463 µM (active) | 0.393 µM (active) | 0.419 µM (active) | 1.03 µM (active) | 4.27 µM (inactive) | 0.417 µM (active) | 1 µM (active) | 0.196 µM (active) |
| COc1ccc([C@@]23Oc4cc(OC)cc(OC)c4[C@]2(O)[C@H](O)[C@H](C(N)=O)[C@H]3c2ccccc2)cc1 [DIDESMETHYLROCAGLAMIDE] | < 0.01 µM (active) | < 0.0108 µM (active) | < 0.0161 µM (active) | < 0.01 µM (active) | < 0.01 µM (active) | < 0.01 µM (active) | < 0.01 µM (active) | < 0.0162 µM (active) | < 0.0106 µM (active) | < 0.01 µM (active) | < 0.01 µM (active) | < 0.01 µM (active) | < 0.01 µM (active) | < 0.01 µM (active) | < 0.01 µM (active) | < 0.01 µM (active) | < 0.0164 µM (active) | < 0.01 µM (active) | < 0.01 µM (active) | < 0.01 µM (active) |
